ChEMBL document CHEMBL5385961, “In vitro and in vivo evaluation of novel chromeno[2,3-d]pyrimidinones as therapeutic agents for triple negative breast cancer” (RSC Med Chem, 2024)
Calls of active or inactive are those of the source. No cut-off for these calls is given here.

Key:
MCF7 [1] = assay: Cytotoxicity against human MCF7 cells assessed as cell viability at 10 uM incubated for 72 hrs by SRB assay relative to control; type: functional; conditions: read-out: Activity
Hs-578T [2] = assay: Cytotoxicity against human Hs-578T cells assessed as cell viability at 10 uM incubated for 72 hrs by SRB assay relative to control; type: functional; conditions: read-out: Activity
MDA-MB-231 [3] = assay: Cytotoxicity against human MDA-MB-231 cells assessed as cell viability at 10 uM incubated for 72 hrs by SRB assay relative to control; type: functional; conditions: read-out: Activity
MDA-MB-231 [4] = assay: Cytotoxicity against human MDA-MB-231 cells assessed as cell viability at 30 uM incubated for 72 hrs by SRB assay relative to control; type: functional; conditions: read-out: Activity
MCF7 [5] = assay: Cytotoxicity against human MCF7 cells assessed as cell viability at 30 uM incubated for 72 hrs by SRB assay relative to control; type: functional; conditions: read-out: Activity
Hs-578T [6] = assay: Cytotoxicity against human Hs-578T cells assessed as cell viability at 30 uM incubated for 72 hrs by SRB assay relative to control; type: functional; conditions: read-out: Activity
[7] = Cytotoxicity against human MCF-10A cells assessed as inhibition of cell growth incubated for 72 hrs by SRB assay; type: toxicity, cell-based
Hs-578T [8] = assay: Induction of apoptosis in human Hs-578T cells assessed as increase in caspase-8 protein expression at IC50 measured after 24 hrs by Western blot analysis; type: functional, cell-based
Homo sapiens = organism: Homo sapiens; assay: Selectivity index, ratio of IC50 for human MCF-10A cells to IC50 for human Hs-578T cells
Hs-578T [9] = assay: Cytotoxicity against human Hs-578T cells assessed as reduction in cell viability at 10 uM incubated for 72 hrs by SRB assay relative to control; type: functional
Hs-578T [10] = assay: Induction of apoptosis in human Hs-578T cells assessed as increase in caspase-8 protein expression at IC50 measured after 48 hrs by Western blot analysis; type: functional, cell-based
Hs-578T [11] = assay: Induction of apoptosis in human Hs-578T cells assessed as increase in caspase-9 protein expression at IC50 measured after 24 to 48 hrs by Western blot analysis; type: functional, cell-based; conditions: time 24-48 hrs
Hs-578T [12] = assay: Induction of apoptosis in human Hs-578T cells assessed as increase in BID protein expression at IC50 measured after 24 to 48 hrs by Western blot analysis; type: functional, cell-based; conditions: time 24-48 hrs
Hs-578T [13] = assay: Induction of apoptosis in human Hs-578T cells assessed as increase in BAD protein expression at IC50 measured after 24 to 48 hrs by Western blot analysis; type: functional, cell-based; conditions: time 24-48 hrs
Hs-578T [14] = assay: Cytotoxicity against human Hs-578T cells assessed as inhibition of cell growth incubated for 72 hrs by SRB assay; type: functional, cell-based

COc1ccc2c(c1)Cc1c(nc(-c3ccccc3OC)[nH]c1=O)O2
viability at 10 µM (MCF7 [1]): 90.6% | viability at 10 µM (Hs-578T [2]): 87.5% | viability at 10 µM (MDA-MB-231 [3]): 85% | viability at 30 µM (MDA-MB-231 [4]): 65.9% | viability at 30 µM (MCF7 [5]): 70.4% | viability at 30 µM (Hs-578T [6]): 65.6%

COc1cccc2c1Oc1nc(-c3cccc(Br)c3)[nH]c(=O)c1C2
viability at 10 µM (MCF7 [1]): 78.4% | viability at 10 µM (Hs-578T [2]): 66.8% | viability at 10 µM (MDA-MB-231 [3]): 92% | viability at 30 µM (MDA-MB-231 [4]): 80.8% | viability at 30 µM (MCF7 [5]): 52.4% | viability at 30 µM (Hs-578T [6]): 40.6%

COc1ccccc1-c1nc2c(c(=O)[nH]1)Cc1cc(Cl)ccc1O2
viability at 10 µM (MCF7 [1]): 80% | viability at 10 µM (Hs-578T [2]): 78.4% | viability at 10 µM (MDA-MB-231 [3]): 88.2% | viability at 30 µM (MDA-MB-231 [4]): 65% | viability at 30 µM (MCF7 [5]): 57.3% | viability at 30 µM (Hs-578T [6]): 38.7%

COc1cccc(-c2nc3c(c(=O)[nH]2)Cc2cc(Cl)ccc2O3)c1
IC50 at 72 h [7]: 14 µM | Activity (Hs-578T [8]): Active | viability at 10 µM (MCF7 [1]): 81.5% | viability at 10 µM (Hs-578T [2]): 54.7% | Ratio IC50 (Homo sapiens): 0.06 | Activity (Hs-578T [9]): ~50% | viability at 10 µM (MDA-MB-231 [3]): 85.1% | Activity (Hs-578T [10]): inactive | viability at 30 µM (MDA-MB-231 [4]): 18.4% | Activity (Hs-578T [11]): Active | Activity (Hs-578T [12]): Active | viability at 30 µM (MCF7 [5]): 35.4% | viability at 30 µM (Hs-578T [6]): 33.9% | Activity (Hs-578T [13]): Active | IC50 (Hs-578T [14]): 13.1 µM

COc1cccc2c1Oc1nc(-c3ccco3)[nH]c(=O)c1C2
viability at 10 µM (MCF7 [1]): 98.9% | viability at 10 µM (Hs-578T [2]): 99.8% | viability at 10 µM (MDA-MB-231 [3]): 92.8% | viability at 30 µM (MDA-MB-231 [4]): 85.8% | viability at 30 µM (MCF7 [5]): 100% | viability at 30 µM (Hs-578T [6]): 90.7%

COc1cccc2c1Oc1nc(-c3cccc(Cl)c3)[nH]c(=O)c1C2
viability at 10 µM (MCF7 [1]): 69.8% | viability at 10 µM (Hs-578T [2]): 72% | viability at 10 µM (MDA-MB-231 [3]): 80.8% | viability at 30 µM (MDA-MB-231 [4]): 76.9% | viability at 30 µM (MCF7 [5]): 40.4% | viability at 30 µM (Hs-578T [6]): 49.9%

COc1cc(OC)c(C2N=C3Oc4c(cccc4OC)C=C3C(=O)N2)c(OC)c1 (configuration not stated)
viability at 10 µM (MCF7 [1]): 99.9% | viability at 10 µM (Hs-578T [2]): 94.8% | viability at 10 µM (MDA-MB-231 [3]): 83.6% | viability at 30 µM (MDA-MB-231 [4]): 77.4% | viability at 30 µM (MCF7 [5]): 91.8% | viability at 30 µM (Hs-578T [6]): 86%

CC(C)(C)c1cc(-c2nc3c(c(=O)[nH]2)Cc2ccccc2O3)cc(C(C)(C)C)c1O
viability at 10 µM (MCF7 [1]): 97.7% | viability at 10 µM (Hs-578T [2]): 80.2% | viability at 10 µM (MDA-MB-231 [3]): 95.1% | viability at 30 µM (MDA-MB-231 [4]): 95.2% | viability at 30 µM (MCF7 [5]): 94.7% | viability at 30 µM (Hs-578T [6]): 81%

COc1cccc2c1Oc1nc(-c3ccccc3Cl)[nH]c(=O)c1C2
viability at 10 µM (MCF7 [1]): 74.7% | viability at 10 µM (Hs-578T [2]): 81.7% | viability at 10 µM (MDA-MB-231 [3]): 92.5% | viability at 30 µM (MDA-MB-231 [4]): 90.1% | viability at 30 µM (MCF7 [5]): 58.2% | viability at 30 µM (Hs-578T [6]): 72.5%

O=c1c(O)c(-c2ccc(O)c(O)c2)oc2cc(O)cc(O)c12 [QUERCETIN]
IC50 at 72 h [7]: 9.32 µM | Ratio IC50 (Homo sapiens): 0.82 | IC50 (Hs-578T [14]): 50.5 µM

O=c1[nH]c(-c2ccccc2)nc2c1Cc1ccccc1O2
viability at 10 µM (MCF7 [1]): 88.5% | viability at 10 µM (Hs-578T [2]): 76.3% | viability at 10 µM (MDA-MB-231 [3]): 69.3% | viability at 30 µM (MDA-MB-231 [4]): 53.2% | viability at 30 µM (MCF7 [5]): 79.2% | viability at 30 µM (Hs-578T [6]): 65.4%

COc1cccc2c1C(=O)c1c(O)c3c(c(O)c1C2=O)C[C@@](O)(C(=O)CO)C[C@@H]3O[C@H]1C[C@H](N)[C@H](O)[C@H](C)O1 [DOXORUBICIN]
viability at 10 µM (MCF7 [1]): 24.5% | viability at 10 µM (Hs-578T [2]): 8.65% | viability at 10 µM (MDA-MB-231 [3]): 6.72% | viability at 30 µM (MDA-MB-231 [4]): 5.85% | viability at 30 µM (MCF7 [5]): 28.8% | viability at 30 µM (Hs-578T [6]): 7.61%

COc1cccc2c1Oc1nc(-c3ccc(F)cc3)[nH]c(=O)c1C2
viability at 10 µM (MCF7 [1]): 88.8% | viability at 10 µM (Hs-578T [2]): 97.5% | viability at 10 µM (MDA-MB-231 [3]): 105% | viability at 30 µM (MDA-MB-231 [4]): 97.8% | viability at 30 µM (MCF7 [5]): 82.9% | viability at 30 µM (Hs-578T [6]): 84.4%

Cc1cccc2c1Oc1nc(-c3ccccc3)[nH]c(=O)c1C2
viability at 10 µM (MCF7 [1]): 34.7% | viability at 10 µM (Hs-578T [2]): 81.3% | viability at 10 µM (MDA-MB-231 [3]): 32.6% | viability at 30 µM (MDA-MB-231 [4]): 15.9% | viability at 30 µM (MCF7 [5]): 23.8% | viability at 30 µM (Hs-578T [6]): 62.1%

COc1cccc2c1Oc1nc(-c3cccc(O)c3)[nH]c(=O)c1C2
viability at 10 µM (MCF7 [1]): 38% | viability at 10 µM (Hs-578T [2]): 75.9% | viability at 10 µM (MDA-MB-231 [3]): 102% | viability at 30 µM (MDA-MB-231 [4]): 102% | viability at 30 µM (MCF7 [5]): 25.4% | viability at 30 µM (Hs-578T [6]): 67.3%

COc1cc(OC)c(C2N=C3Oc4ccc(Br)cc4C=C3C(=O)N2)c(OC)c1 (configuration not stated)
viability at 10 µM (MCF7 [1]): 90.6% | viability at 10 µM (Hs-578T [2]): 95.2% | viability at 10 µM (MDA-MB-231 [3]): 80.6% | viability at 30 µM (MDA-MB-231 [4]): 64.4% | viability at 30 µM (MCF7 [5]): 76.2% | viability at 30 µM (Hs-578T [6]): 68.6%
